{"source": "patent US10709692B2", "about": "“Isoxazolidine derived inhibitors of receptor interacting protein kinase 1 (RIPK1)” (Denali Therapeutics Inc., priority 2015, dated 2020)"}
{"molecular_target": "T1, receptor interacting protein kinase 1 (GST-hRIPK1 (8-327)) (Homo sapiens, UniProt Q13546)", "T1 construct": "GST-hRIPK1 (8-327) enzyme was generated by Proteros GmbH by Baculovirus expression system", "T1 sequence (Q13546 8-327)": "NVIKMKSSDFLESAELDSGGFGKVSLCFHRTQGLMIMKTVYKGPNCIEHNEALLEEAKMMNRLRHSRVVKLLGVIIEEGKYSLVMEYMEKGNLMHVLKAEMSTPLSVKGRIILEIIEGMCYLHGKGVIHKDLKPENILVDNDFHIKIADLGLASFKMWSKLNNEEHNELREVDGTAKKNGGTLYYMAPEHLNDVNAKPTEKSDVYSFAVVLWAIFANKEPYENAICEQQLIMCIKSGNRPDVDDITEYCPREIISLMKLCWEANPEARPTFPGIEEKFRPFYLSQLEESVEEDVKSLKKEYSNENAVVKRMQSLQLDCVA", "test": "Fluorescent Polarization Binding (FP Binding) assay", "settings": "10 nM GST-hRIPK1 (8-327), 5 nM fluorescent-labeled ligand, 30 min at RT", "how_it_was_run": "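Displacement of 5 nM fluorescent ligand from 10 nM GST-hRIPK1 (8-327), 30 min at room temperature in pH 7.5 HEPES buffer, 1% DMSO. Fluorescence polarization read (ex 531/em 595 nm); IC50 fitted from percent inhibition and averaged over at least two independent experiments.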", "units": {"IC50": "nM"}}
{"smiles": "CC(C)(CC#N)C(=O)N1OCC[C@H]1c1ccc(C(F)F)nc1", "note": "[Compound 131, 4-(3S)-3-[6-(difluoromethyl)pyridin-3-yl]-1,2-oxazolidin-2-yl-3,3-dimethyl-4-oxobutanenitrile]", "IC50": "< 1000"}
{"smiles": "CC(C)(C)C(=O)N1OCC[C@H]1c1ccn2nccc2c1", "note": "[Compound 132, 2,2-dimethyl-1-[(3S)-3-{pyrazolo[1,5-a]pyridin-5-yl}-1,2-oxazolidin-2-yl]propan-1-one]", "IC50": "< 1000"}
{"smiles": "CC(C)(C)C(=O)N1OCC[C@H]1c1cncc(F)c1", "note": "[Compound 133, 1-[(3S)-3-(5-fluoropyridin-3-yl)-1,2-oxazolidin-2-yl]-2,2-dimethylpropan-1-one]", "IC50": "< 1000"}
{"smiles": "CC(C)(C)C(=O)N1OCC[C@@H]1c1ccc(F)cc1F", "note": "[Compound 134, 1-[(3R)-3-(2,4-difluorophenyl)-1,2-oxazolidin-2-yl]-2,2-dimethylpropan-1-one]", "IC50": "< 1000"}
{"smiles": "CC(C)(C)C(=O)N1OCC[C@H]1c1ccc(F)cc1F", "note": "[Compound 135, 1-[(3S)-3-(2,4-difluorophenyl)-1,2-oxazolidin-2-yl]-2,2-dimethylpropan-1-one]", "IC50": "< 1000"}
{"smiles": "Cc1cnc([C@@H]2CCON2C(=O)C(C)(C)C)cn1", "note": "[Compound 138, 2,2-dimethyl-1-[(3S)-3-(5-methylpyrazin-2-yl)-1,2-oxazolidin-2-yl]propan-1-one]", "IC50": "< 1000"}
{"smiles": "CC(C)(COC(F)(F)F)C(=O)N1OCC[C@H]1c1cncc(F)c1", "note": "[Compound 139, 1-[(3S)-3-(5-fluoropyridin-3-yl)-1,2-oxazolidin-2-yl]-2,2-dimethyl-3-(trifluoromethoxy)propan-1-one]", "IC50": "< 1000"}
{"smiles": "CC(C)(C)C(=O)N1OCC[C@H]1c1cccc2ccnn12", "note": "[Compound 140, 2,2-dimethyl-1-[(3S)-3-{pyrazolo[1,5-a]pyridin-7-yl}-1,2-oxazolidin-2-yl]propan-1-one]", "IC50": "< 1000"}
{"smiles": "CC(C)(C)C(=O)N1OCC[C@H]1c1ccc(C#N)nc1", "note": "[Compound 143, 5-[(3S)-2-(2,2-dimethylpropanoyl)-1,2-oxazolidin-3-yl]pyridine-2-carbonitrile]", "IC50": "< 1000"}
{"smiles": "COc1cc([C@@H]2CCON2C(=O)C(C)(C)C)ccn1", "note": "[Compound 144, 1-[(3S)-3-(2-methoxypyridin-4-yl)-1,2-oxazolidin-2-yl]-2,2-dimethylpropan-1-one]", "IC50": "< 1000"}
{"smiles": "COc1ccc([C@@H]2CCON2C(=O)C(C)(C)C)cn1", "note": "[Compound 145, 1-[(3S)-3-(6-methoxypyridin-3-yl)-1,2-oxazolidin-2-yl]-2,2-dimethylpropan-1-one]", "IC50": "< 1000"}
{"smiles": "CC(C)(C)C(=O)N1OCC[C@H]1c1ccccc1C#N", "note": "[Compound 146, 2-[(3S)-2-(2,2-dimethylpropanoyl)-1,2-oxazolidin-3-yl]benzonitrile]", "IC50": "< 1000"}
{"smiles": "CC(C)(C)C(=O)N1OCC[C@H]1c1cccc(C#N)c1", "note": "[Compound 147, 3-[(3S)-2-(2,2-dimethylpropanoyl)-1,2-oxazolidin-3-yl]benzonitrile]", "IC50": "< 1000"}
{"smiles": "CC(C)(C)C(=O)N1OCC[C@H]1c1ccc(C2CC2)nc1", "note": "[Compound 148, 1-[(3S)-3-(6-cyclopropylpyridin-3-yl)-1,2-oxazolidin-2-yl]-2,2-dimethylpropan-1-one]", "IC50": "< 1000"}
{"smiles": "CC(C)(C)C(=O)N1OCC[C@H]1c1ccnc(N)c1", "note": "[Compound 149, 1-[(3S)-3-(2-aminopyridin-4-yl)-1,2-oxazolidin-2-yl]-2,2-dimethylpropan-1-one]", "IC50": "1000 to 10000"}
{"smiles": "CC(C)(C)C(=O)N1OCC[C@H]1c1cc(C#N)ccc1F", "note": "[Compound 150, 3-[(3S)-2-(2,2-dimethylpropanoyl)-1,2-oxazolidin-3-yl]-4-fluorobenzonitrile]", "IC50": "< 1000"}
{"smiles": "CC(C)(C)C(=O)N1OCC[C@H]1c1ccc(C#N)c(F)c1", "note": "[Compound 151, 4-[(3S)-2-(2,2-dimethylpropanoyl)-1,2-oxazolidin-3-yl]-2-fluorobenzonitrile]", "IC50": "< 1000"}
{"smiles": "Cc1ccc([C@@H]2CCON2C(=O)C(C)(C)C)cn1", "note": "[Compound 152, 2,2-dimethyl-1-[(3S)-3-(6-methylpyridin-3-yl)-1,2-oxazolidin-2-yl]propan-1-one]", "IC50": "< 1000"}
{"smiles": "CC(C)(C)C(=O)N1OCC[C@H]1c1ccc(F)c(C#N)c1", "note": "[Compound 153, 5-[(3S)-2-(2,2-dimethylpropanoyl)-1,2-oxazolidin-3-yl]-2-fluorobenzonitrile]", "IC50": "< 1000"}
{"smiles": "CC(C)(COC(F)F)C(=O)N1OCC[C@H]1c1ccc(C#N)cc1", "note": "[Compound 154, 4-[(3S)-2-[3-(difluoromethoxy)-2,2-dimethylpropanoyl]-1,2-oxazolidin-3-yl]benzonitrile]", "IC50": "< 1000"}
{"smiles": "CC1(C(=O)N2OCC[C@H]2c2ccc(F)cc2)CC(F)(F)C1", "note": "[Compound 155, (3S)-2-(3,3-difluoro-1-methylcyclobutane-carbonyl)-3-(4-fluorophenyl)-1,2-oxazolidine]", "IC50": "< 1000"}
{"smiles": "CC(C)(C(=O)N1OCC[C@H]1c1ccc(F)cc1)N1CCC1", "note": "[Compound 156, 2-(azetidin-1-yl)-1-[(3S)-3-(4-fluorophenyl)-1,2-oxazolidin-2-yl]-2-methylpropan-1-one]", "IC50": "1000 to 10000"}
{"smiles": "CC(C)(C)C(=O)N1OCCC1c1ccnnc1", "note": "(stereo not shown) [Compound 157, 2,2-dimethyl-1-[3-(pyridazin-4-yl)-1,2-oxazolidin-2-yl]propan-1-one]", "IC50": "1000 to 10000"}
{"smiles": "N#Cc1ccc([C@@H]2CCON2C(=O)C2(C3CC3)CC2)cc1", "note": "[Compound 158, 4-[(3S)-2-(1-cyclopropylcyclopro-panecarbonyl)-1,2-oxazolidin-3-yl]benzonitrile]", "IC50": "< 1000"}
{"smiles": "O=C(N1OCC[C@H]1c1ccc(F)nc1)C1(C2CC2)CC1", "note": "[Compound 159, 5-[(3S)-2-(1-cyclopropylcyclopro-panecarbonyl)-1,2-oxazolidin-3-yl]-2-fluoropyridine]", "IC50": "< 1000"}
{"smiles": "O=C(C1C2COCC21)N1OCC[C@H]1c1ccc(F)nc1", "note": "(stereo partly drawn) [Compound 160, 2-fluoro-5-[(3S)-2-{3-oxabicyclo[3.1.0]hexane-6-carbonyl}-1,2-oxazolidin-3-yl]pyridine]", "IC50": "1000 to 10000"}
{"smiles": "[2H]C([2H])([2H])C(C(=O)N1OCC[C@H]1c1ccc(F)nc1)(C([2H])([2H])[2H])C([2H])([2H])[2H]", "note": "[Compound 161, 1-[(3S)-3-(6-fluoropyridin-3-yl)-1,2-oxazolidin-2-yl]-2,2-bis(^2H3)methyI(^2H3) propan-1-one]", "IC50": "< 1000"}
{"smiles": "CC(C)(COC(F)(F)F)C(=O)N1OCC[C@H]1c1ccc(F)nc1", "note": "[Compound 164, 1-[(3S)-3-(6-fluoropyridin-3-yl)-1,2-oxazolidin-2-yl]-2,2-dimethyl-3-(trifluoromethoxy) propan-1-one]", "IC50": "< 1000"}
{"smiles": "CC(C)(CC#N)C(=O)N1OCC[C@H]1c1ccc(F)nc1", "note": "[Compound 165, 4-[(3S)-3-(6-fluoropyridin-3-yl)-1,2-oxazolidin-2-yl]-3,3-dimethyl-4-oxobutanenitrile]", "IC50": "< 1000"}
{"smiles": "C[C@](O)(C(=O)N1OCC[C@H]1c1ccc(F)nc1)C(F)(F)F", "note": "[Compound 166, (2S)-3,3,3-trifluoro-1-[(3S)-3-(6-fluoropyridin-3-yl)-1,2-oxazolidin-2-yl]-2-hydroxy-2-methylpropan-1-one]", "IC50": "1000 to 10000"}
{"smiles": "O=C(C(C1CC1)C1CC1)N1OCC[C@H]1c1ccc(F)nc1", "note": "[Compound 167, 2,2-dicyclopropyl-1-[(3S)-3-(6-fluoropyridin-3-yl)-1,2-oxazolidin-2-yl]ethan-1-one]", "IC50": "< 1000"}
